Assay: Plasma exposure (pharmacokinetics) of darunavir and efavirenz after oral administration of formulations
Settings: for concentration at 1 h / concentration at 2 h: male, Sprague-Dawley, 10 mg/kg, average plasma concentration
Method: In this study, the exposure and distribution of darunavir and efavirenz were evaluated following oral administration in male Sprague-Dawley rats. Four cohorts of 10 rats each were used in this study. The first cohort involved darunavir using the disclosed formulations and the second cohort darunavir in a control formulation. The third cohort involved efavirenz using the disclosed formulations and the fourth cohort efavirenz in a control formulation.
Formulations were administered orally (PO) at 10 mg/kg of darunavir or efavirenz. Following dosing, blood, urine and fecal samples were collected up to 8-hour post dose (groups 1, 3, 5, and 7) or 24-hour post dose (groups 2, 4, 6, and 8). Brain tissue was collected at 8 hours or 24 hours, following the 8 hour or 24-hour urine and feces sample collection. Plasma, urine, feces, and brain tissue concentrations of the analytes were determined by LC-MS/MS. Plasma pharmacokinetic parameters were determined using WinNonlin (v8.0) software.
Plasma, urine, feces, and brain tissue samples were extracted and analyzed using the methods described as follows.
Analytical stock solutions (1.00 mg/mL of the free drug) were prepared in DMSO. Sample Homogenization Brain tissue and feces samples were homogenized with a Virsonic 100 ultrasonic homogenizer. Each brain tissue sample was first weighed, and then an appropriate volume of 20:80 methanol:water was added to make a 2 mL/gram sample. Samples were then homogenized on ice, and stored frozen until analysis. Feces samples were homogenized with 20:80 MeOH:water (8 mL/gram of tissue) prior to extraction. Standard Preparation (Plasma, Urine, and Brain) Standards were prepared in rat plasma containing sodium heparin as the anticoagulant, or in blank tissue homogenate. Working solutions were prepared in 50:50 acetonitrile:water. Working solutions were then added to blank matrix to make calibration standards to final concentrations of 1000, 500, 250, 100, 75.0, 50.0, 25.0, and 10 ng/mL. Standards were treated identically to the study samples. Sample Extraction (Plasma, Urine, Feces, and Brain) Plasma, urine, feces, and brain tissue samples were manually extracted via acetonitrile precipitation in a 96-well plate. Urine samples were diluted a minimum of 5-fold into blank rat plasma prior to extraction. Diluted urine samples were quantified against the rat plasma calibration curve. Brain and feces tissue homogenates were quantified against calibration curves prepared in matched blank tissue homogenate.

[1] = rat, in vivo, po, animals given the control formulation, rats
[2] = rat, plasma, po, animals given the control formulation, rats
[3] = rat, plasma, po, test animals (disclosed test formulation), rats

SMILES: CC(C)CN(C[C@@H](O)[C@H](Cc1ccccc1)NC(=O)O[C@H]1CO[C@H]2OCC[C@H]21)S(=O)(=O)c1ccc(N)cc1 [darunavir]
- concentration at 1 h [1]: ~185 ng/mL
- concentration at 2 h [1]: ~63 ng/mL
- concentration at 2 h (rat, in vivo, po, test animals (disclosed test formulation), rats): ~153 ng/mL
- plasma concentration with disclosed compositions versus control formulations (oral, rats, disclosed formulation compared with control formulation): double the plasma concentration

SMILES: O=C1Nc2ccc(Cl)cc2[C@@](C#CC2CC2)(C(F)(F)F)O1 [efavirenz]
- concentration at 1 h [2]: ~139 ng/mL
- concentration at 2 h [2]: ~117 ng/mL
- concentration at 1 h [3]: ~133 ng/mL
- concentration at 2 h [3]: ~142 ng/mL
- plasma concentration with disclosed compositions versus control formulations (rat, in vivo, po): higher levels than control formulations

Reference: patent US20210330683A1, “COMPOSITIONS AND METHODS FOR ENHANCED DELIVERY OF ANTIVIRAL AGENTS” (POVIVA CORP., priority 2020, published 2021)
